Data published in patent publication US20160168126A1, “CHEMICAL COMPOUNDS” (SYNGENTA LIMITED, priority 2013, published 2016).

System: a variety of test species
Assay: Post-emergence herbicidal activity (glasshouse, sprayed 8 days after sowing, evaluated after 13 days)
Type: in vivo
Conditions: 1000 g/ha, scale 0-5
Description: Seeds of a variety of test species were sown in standard soil in pots. After 8 days cultivation (post-emergence) under controlled conditions in a glasshouse (at 24/16° C., day/night; 14 hours light; 65% humidity), the plants were sprayed with an aqueous spray solution derived from the formulation of the technical active ingredient in acetone/water (50:50) solution containing 0.5% Tween 20 (polyoxyethelyene sorbitan monolaurate, CAS RN 9005-64-5). The test plants were then grown in a glasshouse under controlled conditions (at 24/16° C., day/night; 14 hours light; 65% humidity) and watered twice daily. After 13 days, the test was evaluated (5=total damage to plant; 0=no damage to plant).

Row | Compound | Post-emergence herbicidal damage score, ABUTH (Abutilon theophrasti) | Post-emergence herbicidal damage score, ALOMY (Alopecurus myosuroides) | Post-emergence herbicidal damage score, AMARE (Amaranthus retroflexus) | Post-emergence herbicidal damage score, ECHCG (Echinochloa crus-galli) | Post-emergence herbicidal damage score, SETFA (Setaria faberi) | Post-emergence herbicidal damage score, ZEAMX (Zea mays)
1 | C/C=C\c1cc(N2C(=O)C(C)=C(Cl)C2O)nn1C (stereo not drawn) [Compound B24] | 5 | 3 | 5 | 4 | 5 | 1
2 | CC1=C(Cl)C(O)N(c2nn(C)c(C(C)(C)C)c2Cl)C1=O (stereo not drawn) [Compound D2] | 3 | 1 | 0 | 2 | 2 | 0
3 | COC1=C(C)C(=O)N(c2cc(C(F)(F)F)n(C)n2)C1O (stereo not drawn) [Compound I3] | 5 | 5 | 5 | 5 | 5 | 4
4 | CCCC1=C(C)C(O)N(c2nn(C)c(C(C)(C)C)c2C#N)C1=O (stereo not drawn) [Compound D4] | 4 | 3 | 2 | 2 | 4 | 0
5 | CC1=C(Cl)C(O)N(c2cc(C(F)(F)F)[nH]n2)C1=O (stereo not drawn) [Compound A2] | 4 | 1 | 1 | 2 | 2 | 0
6 | CC1=C(Cl)C(O)N(c2cc(C(C)(C)C#N)n(C)n2)C1=O (stereo not drawn) [Compound B23] | 4 | 3 | 5 | 5 | 4 | 1
7 | CC1=C(Cl)C(O)N(c2cc(C)n(C(F)(F)F)n2)C1=O (stereo not drawn) [Compound C9] | 1 | 0 | 1 | 1 | 0 | 1
8 | CSc1cc(N2C(=O)C(C)=C(Cl)C2O)nn1C (stereo not drawn) [Compound B17] | 4 | 2 | 3 | 4 | 5 | 1
9 | CC1=C(Cl)C(O)N(c2nn(C)c3c2CCC3(C)C)C1=O (stereo not drawn) [Compound B18] | 5 | 4 | 5 | 5 | 5 | 4
10 | CC1=C(Cl)C(O)N(c2cc(Cc3ccccc3)n(C)n2)C1=O (stereo not drawn) [Compound B32] | 5 | 2 | 3 | 3 | 4 | 0
11 | Cn1nc(N2C(=O)C(CCl)=C(Cl)C2O)cc1C(C)(C)C (stereo not drawn) [Compound E1] | 4 | 4 | 1 | 5 | 5 | 0
12 | CC1=C(Cl)C(O)N(c2cc(Cl)n(C)n2)C1=O (stereo not drawn) [Compound B9] | 5 | 4 | 5 | 5 | 5 | 1
